Legend:
Format in all cases: in vivo
Veronica = experiment: Pre-emergence test/greenhouse, Veronica; conditions: 504 h, 500 g of ai./ha, after three weeks, read-out: degree of damage, Veronica
Protocol: (§1) Solvent: 5 parts by weight of acetone
(§2) Emulsifier: 1 part by weight of alkylaryl polyglycol ether
(§3) To produce a suitable preparation of active compound, 1 part by weight of active compound is mixed with the stated amount of solvent, the stated amount of emulsifier is added and the concentrate is diluted with water to the desired concentration.
(§4) Seeds of the test plants are sown in normal soil. After about 24 hours, the soil is sprayed with the preparation of active compound such that the particular amount of active compound desired is applied per unit area. The concentration of the spray liquor is chosen so that the particular amount of active compound desired is applied in 1000 liters of water per hectare.
(§5) After three weeks, the degree of damage to the plants is rated in % damage in comparison to the development of the untreated control.
(§6) 0%=no effect (like untreated control)

Solanum = experiment: Pre-emergence test/greenhouse, Solanum; conditions: 500 g of ai./ha, after three weeks
Protocol: as §1, §2, §3, §4, §5, §6

Chenopodium = experiment: Pre-emergence test/greenhouse, Chenopodium; conditions: 500 g of ai./ha, after three weeks
Protocol: as §1, §2, §3, §4, §5, §6

Digitaria = experiment: Pre-emergence test/greenhouse, Digitaria; conditions: 500 g of ai./ha, after three weeks
Protocol: as §1, §2, §3, §4, §5, §6

Viola = experiment: Pre-emergence test/greenhouse, Viola; conditions: after three weeks
Protocol: as §1, §2, §3, §4, §5, §6

Setaria = experiment: Pre-emergence test/greenhouse, Setaria; conditions: 500 g of ai./ha, after three weeks
Protocol: as §1, §2, §3, §4, §5, §6

barley = experiment: Pre-emergence test/greenhouse, barley; conditions: 500 g of ai./ha, after three weeks
Protocol: as §1, §2, §3, §4, §5, §6

Matricaria = experiment: Pre-emergence test/greenhouse, Matricaria; conditions: 500 g of ai./ha, after three weeks
Protocol: as §1, §2, §3, §4, §5, §6

Cyperus = experiment: Pre-emergence test/greenhouse, Cyperus; conditions: 500 g of ai./ha, after three weeks
Protocol: as §1, §2, §3, §4, §5, §6

cotton = experiment: Pre-emergence test/greenhouse, cotton; conditions: 500 g of ai./ha, after three weeks
Protocol: as §1, §2, §3, §4, §5, §6

Datura = experiment: Pre-emergence test/greenhouse, Datura; conditions: 500 g of ai./ha, after three weeks
Protocol: as §1, §2, §3, §4, §5, §6

soya = experiment: Pre-emergence test/greenhouse, soya; conditions: 500 g of ai./ha, after three weeks
Protocol: as §1, §2, §3, §4, §5, §6

Lolium = experiment: Pre-emergence test/greenhouse, Lolium; conditions: 500 g of ai./ha, after three weeks
Protocol: as §1, §2, §3, §4, §5, §6

## CCC(CCc1cc(Br)cs1)Nc1nc(NC(C)=O)nc(C(C)(C)F)n1 (stereo not drawn) [drawing 239]
Veronica
  pest or weed control at 500 g/ha: 100%
Solanum
  degree of damage, Solanum: 100%
Chenopodium
  degree of damage, Chenopodium: 100%
Digitaria
  degree of damage, Digitaria: 100%

## CCC(CCc1sccc1Br)Nc1nc(N)nc(C(C)(C)F)n1 (stereo not drawn) [drawing 240]
Veronica
  pest or weed control at 500 g/ha: 100%

## CCC(CCc1sccc1Br)Nc1nc(N)nc(C(C)F)n1 (stereo not drawn) [drawing 241]
Veronica
  pest or weed control at 500 g/ha: 100%
Solanum
  degree of damage, Solanum: 100%
Digitaria
  degree of damage, Digitaria: 100%

## CCC(CCc1sccc1Br)Nc1nc(NC(C)=O)nc(C(C)F)n1 (stereo not drawn) [drawing 242]
Veronica
  pest or weed control at 500 g/ha: 100%
Solanum
  degree of damage, Solanum: 100%

## CCC(CCc1cc(C)sc1C)Nc1nc(N)nc(C(C)F)n1 (stereo not drawn) [drawing 243]
Veronica
  pest or weed control at 500 g/ha: 100%
Solanum
  degree of damage, Solanum: 100%
Digitaria
  degree of damage, Digitaria: 100%

## CCC(CCc1cc(C)sc1C)Nc1nc(NC(C)=O)nc(C(C)(C)F)n1 (stereo not drawn) [drawing 244]
Veronica
  pest or weed control at 500 g/ha: 100%

## CC(CCCc1cccs1)Nc1nc(N)nc(C(C)(C)F)n1 (stereo not drawn) [drawing 245]
Viola; 1000 g of ai./ha
  degree of damage, Viola: 100%

## CCC(CCc1ccc(Br)s1)Nc1nc(N)nc(C(C)F)n1 (stereo not drawn) [drawing 246]
Viola; 500 g of ai./ha
  degree of damage, Viola: 100%

## CCC(CCc1ccc(Br)s1)Nc1nc(N)nc(C(C)(C)F)n1 (stereo not drawn) [drawing 247]
Viola; 500 g of ai./ha
  degree of damage, Viola: 100%

## CCC(CCc1cc(Br)cs1)Nc1nc(NC(C)=O)nc(C(C)F)n1 (stereo not drawn) [drawing 248]
Viola; 500 g of ai./ha
  degree of damage, Viola: 100%
Setaria
  degree of damage, Setaria: 95%
barley
  degree of damage, barley: 0%

## CCC(CCc1cc(Br)cs1)Nc1nc(NC(C)=O)nc(C(C)(C)F)n1 (stereo not drawn) [drawing 249]
Viola; 500 g of ai./ha
  degree of damage, Viola: 100%
Setaria
  degree of damage, Setaria: 95%

## CCC(CCc1sccc1Br)Nc1nc(N)nc(C(C)(C)F)n1 (stereo not drawn) [drawing 250]
Matricaria
  degree of damage, Matricaria: 100%
Cyperus
  degree of damage, Cyperus: 100%

## CCC(CCc1sccc1Br)Nc1nc(NC(C)=O)nc(C(C)F)n1 (stereo not drawn) [drawing 252]
Matricaria
  degree of damage, Matricaria: 100%

## CCC(CCc1cc(C)sc1C)Nc1nc(N)nc(C(C)F)n1 (stereo not drawn) [drawing 253]
Viola; 500 g of ai./ha
  degree of damage, Viola: 100%

## CCC(CCc1cc(C)sc1C)Nc1nc(NC(C)=O)nc(C(C)(C)F)n1 (stereo not drawn) [drawing 254]
Viola; 500 g of ai./ha
  degree of damage, Viola: 100%
Matricaria
  degree of damage, Matricaria: 95%

## CCC(CCc1sccc1Br)Nc1nc(N)nc(C(C)F)n1 (stereo not drawn) [drawing 261]
cotton
  degree of damage, cotton: 0%
Datura
  degree of damage, Datura: 100%

## CCC(CCc1sccc1Br)Nc1nc(NC(C)=O)nc(C(C)F)n1 (stereo not drawn) [drawing 262]
cotton
  degree of damage, cotton: 0%

## CCC(CCc1cc(C)sc1C)Nc1nc(N)nc(C(C)F)n1 (stereo not drawn) [drawing 263]
soya
  degree of damage, soya: 0%

## CCC(CCc1cc(C)sc1C)Nc1nc(NC(C)=O)nc(C(C)(C)F)n1 (stereo not drawn) [drawing 264]
Lolium
  degree of damage, Lolium: 90%

Reference: patent US6420313B1, “Thienylalkylamino-1,3,5-triazines and the use thereof as herbicides” (Bayer Aktiengesellschaft, priority 1998, dated 2002)
